Patent US8586530B2, “Modulation of inhibition of ferrochelatase by N-methyl protoporphyrin” (University of South Florida, priority 2006, dated 2013)
Residue numbers refer to the chain shown, from its start.

Legend:
[1] = target: T1, ferrochelatase variant P255R (Mus musculus, UniProt P22315, P308R); experiment: Transient kinetic analysis of NMPP inhibition (stopped-flow, zinc-protoporphyrin formation); type: biochemical, murine
T1 construct: In wild-type, murine, mature ferrochelatase, five tryptophan residues; penta-histidine tag (N); made in house; host or cells: E. coli BL21(DE3)
T1 sequence (P22315 54-422 P308R): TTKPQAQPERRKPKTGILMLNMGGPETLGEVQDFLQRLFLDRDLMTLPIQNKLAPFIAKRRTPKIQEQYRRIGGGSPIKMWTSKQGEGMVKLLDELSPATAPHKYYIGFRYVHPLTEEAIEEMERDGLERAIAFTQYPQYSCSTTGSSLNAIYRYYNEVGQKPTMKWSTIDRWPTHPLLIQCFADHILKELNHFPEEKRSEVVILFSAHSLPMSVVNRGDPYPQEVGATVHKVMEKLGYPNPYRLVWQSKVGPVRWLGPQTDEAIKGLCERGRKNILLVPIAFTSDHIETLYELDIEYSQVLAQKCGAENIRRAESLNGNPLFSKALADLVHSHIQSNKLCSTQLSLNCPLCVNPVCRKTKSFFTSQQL
Description: (§1) Enzyme (0.5 μM) was reacted with protoporphyrin (5 μM) and zinc-acetate (15 μM) in the presence of various concentrations of NMPP. The pseudo first-order rate constant k was obtained from analysis of the time course (see Materials and Methods and FIG. 4) and plotted against NMPP concentration. The enzymes used in each set were: A. wild-type ferrochelatase; B. variant P255R; C. variant P255G.
In order to obtain the pseudo first-order rate constants for NMPP binding, the kinetic traces for zinc-protoporphyrin formation in the presence of various concentrations of inhibitor were fitted to equation 3. […] The data were fit to equation 1 for a two step process:
[formula] where k is the pseudo first-order rate constant for the approach to the steady-state phase, I0 is the inhibitor concentration, S0 is the initial substrate concentration,
[formula] is the apparent inhibition constant, Ki^app, and k2 and k−2 are the second step forward and reverse rate constants, respectively. […] A two kinetic step process for binding of NMPP to either wild-type ferrochelatase or P255R (i.e., a fast, initial step for NMPP binding to the enzyme, followed by a slow step, possibly related to a conformational rearrangement of the protein-inhibitor complex) is consistent with the porphyrin-triggered conformational change of the active-site pocket deduced from the analysis of the crystal structure of B. subtilis ferrochelatase with bound N-methyl mesoporphyrin in comparison with that of the unliganded protein. […] Therefore the diminished inhibition of variant P255R by NMPP (Ki^app=1 μM vs. Ki^app=3 nM for wild-type ferrochelatase) cannot be accounted for by differences in these rates.
(§2) Transient Kinetic Analysis. The kinetic steps involved in NMPP binding to ferrochelatase were assessed using stopped-flow absorption spectroscopic analysis by monitoring the enzymatic reaction in the presence of various concentrations of the inhibitor NMPP. The reactions were performed using a rapid scanning stopped-flow spectrophotometer (model RSM-1000; OLIS Inc.), equipped with a stopped-flow mixer and an observation chamber with an optical path-length of 4 mm. The dead time of the instrument is ˜2 ms. Scan spectra spanning the wavelength range of 347 to 574 nm were collected at a rate of 1000 scan/sec. The syringes containing the reaction components and the stopped-flow cell were maintained at 30° C. using an external water-bath. The concentrations of reagents loaded into each syringe were two-fold greater than the final concentrations in the observation chamber. Enzymatic activity was monitored by following the increase in absorbance at 420 nm for zinc-protoporphyrin production using Zn^2+ and protoporphyrin as substrates.
The enzyme and substrate stock solutions were diluted in 100 mM Tris-acetate, pH 8.0, containing 0.5% Tween-80. The stock solutions for substrates and inhibitor were prepared as follows: A 3 mM zinc-acetate solution was made by dissolving zinc-acetate in distilled and deionized H2O. A 200 μM protoporphyrin solution was prepared by dissolving protoporphyrin 1× in 50 mM NH4OH containing 0.5% Tween-80. A 2 mM NMPP solution was prepared by dissolving NMPP in 100 mM NH4OH containing 0.5% Tween-80. Typically, a 2 mL solution that was 1 μM in ferrochelatase and 10 μM in protoporphyrin was pre-incubated on ice for 30 min. The porphyrin-enzyme solution was titrated with NMPP. The mixture was subsequently transferred to one of the stopped-flow syringes. The other stopped-flow syringe was loaded with a reaction buffer solution of ˜2 mL that was 30 μM in zinc-acetate. The enzymatic reaction was initiated by mixing the contents from both syringes and reaction progression was monitored by following the increase in absorbance at 420 nm. The data were analyzed by fitting the observed absorbance values to equation 4: […]

[2] = target: T2, ferrochelatase variant P255G (Mus musculus, UniProt P22315, P308G); experiment: as above; type: biochemical, murine
T2 construct: In wild-type, murine, mature ferrochelatase, five tryptophan residues; penta-histidine tag (N); made in house; host or cells: E. coli BL21(DE3)
T2 sequence (P22315 54-422 P308G): T1 sequence (P22315 54-422 P308R) with R255G
Description: as §1
The pseudo-first order rate constant dependence on NMPP concentration was best described by equation 2:
[formula] and k−1 are the forward and reverse rate constants, respectively.
Although NMPP binding to P255G occurred via a one-step reaction, the values for the rate constants associated with this step (k1 and k−1) were similar to those determined for the rate-limiting step of the kinetic pathway for inhibition of ferrochelatase and P255R by NMPP.
as §2, with “Scan spectra spanning the wavelength range of 347 to 574 nm were collected at a rate of 1000 scan/sec. The syringes containing the reaction components and the stopped-flow cell were maintained at 30° C. using an external water-bath. The concentrations of reagents loaded into each syringe were two-fold greater than the final concentrations in the observation chamber.” left out
The enzyme and substrate stock solutions were diluted in 100 mM Tris-acetate, pH 8.0, containing 0.5% Tween-80. […] The enzymatic reaction was initiated by mixing the contents from both syringes and reaction progression was monitored by following the increase in absorbance at 420 nm. The data were analyzed by fitting the observed absorbance values to equation 4:
[formula] where A is the observed absorbance, A0 is the initial absorbance, vs is the steady-state velocity, v0 is the initial velocity and k is the pseudo-first order rate constant for inhibitor binding. […]

second step forward rate constant k2 [1]: 8.3 s⁻¹
second step reverse rate constant k−2 [1]: 19.3 s⁻¹
Ki ([1]; two-step fit (equation 1), read-out: apparent inhibition constant Ki^app): 1000 nM
forward rate constant (one-step binding) [2]: 8.2e+06 M⁻¹ s⁻¹
reverse rate constant k−1 (one-step binding) [2]: 18.7 s⁻¹
Ki ([2]; one-step fit (equation 2), from the rate constants, read-out: apparent inhibition constant Ki^app): 2300 nM
Substance: N-methyl protoporphyrin [NMPP]
